Data from US20220235064A1 (WELLMARKER BIO CO., LTD., priority 2019, published 2022).

Legend:
RON tyrosine kinase = target: T1, RON tyrosine kinase (Homo sapiens, UniProt Q04912); assay: Enzyme inhibitory activity against RON tyrosine kinase (TR-FRET); format: biochemical; details: RON (Carna Bioscience)
T1 construct: purchased Carna Bioscience
Experimental: Experimental Example 1: Measurement of Enzyme Inhibitory Activity Against RON Tyrosine Kinase
To measure enzyme inhibitory activity of the example compounds against RON, IC50 values of the compounds were measured using fluorescence resonance energy transfer (FRET).
Specifically, first, RON (Carna Bioscience) was diluted in a kinase assay buffer (50 mM HEPES pH 7.5, 1 mM EGTA, 10 mM MgCl2, 2 mM DTT, and 0.01% Tween-20) to be at a concentration (0.4 nM) that is twice the final reaction concentration. The dilute was added to a 384-well-plate at 5 μl per well. Each of the example compounds was prepared at a concentration of 1 mM in 100% DMSO and diluted 8 times in a stepwise manner through 10-fold dilution. Each compound was diluted in a kinase assay buffer to be at a concentration that is 4 times the final reaction concentration. The dilute was added to a 384-well-plate at 2.5 μl per well, and incubation was performed at room temperature for 15 minutes.
Thereafter, an ATP solution (Sigma Aldrich) prepared at a concentration of 0.25 M was diluted in a kinase assay buffer to be at a concentration (60 μM) that is 4 times the final reaction concentration. Dilution of a tyrosine peptide substrate (Perkin-Elmer) was performed therein to be at a concentration (400 nM) that is 4 times the final reaction concentration. The dilute was added to a 384-well-plate at 2.5 µl per well. Reaction was allowed to proceed for 60 minutes by incubating the 384-well-plate at room temperature. Thereafter, EDTA (Sigma Aldrich) was diluted in a TR-FRET detection buffer (Perkin-Elmer) to be at a concentration (20 mM) that is twice the final reaction concentration. Dilution of a Europium-containing phosphotyrosine antibody (Perkin-Elmer) was performed in the diluted EDTA solution to be at a concentration (4 nM) that is twice the final reaction concentration, so that a stop solution for RON reaction was prepared.
The stop solution was added to the 384-well-plate at 10 μl per well to quench the reaction, and incubation was performed at room temperature for 60 minutes. Then, the 384-well-plate was read on a Victor X5 (Perkin-Elmer) plate reader. Here, the excitation wavelength was 340 nm, and the emission wavelengths were 620 nm and 665 nm. An IC50 value of the compound was derived using GraphPad Prism 5 program, in which the IC50 was derived by expressing emission energy at the wavelength of 665 nm as a function of the compound concentration.

[1] = test system: cancer cell line KM12C, in which RON is activated; assay: Cell-killing efficacy in RON-activated cancer cell line (trypan blue); format: cell-based; details: Homo sapiens, 48 hours, trypan blue, n=2, read-out: Cell death (%) Cancer cell line KM12C
Experimental: Experimental Example 3: Measurement of Cell-Killing Efficacy of Example Compounds in RON-Activated Cancer Cell Line
The cancer cell line KM12C (80015, KCLB, MEM+10% FBS), in which RON is activated, was dispensed into each 60 mm^2 dish at 1×10^5 cells. After 24 hours, the dish was treated with each of the example compounds at a concentration of 1 μM or 5 μM while performing medium exchange, and then reaction was allowed to proceed for 48 hours. After 48 hours, centrifugation was performed for 4 minutes at 1,500 rpm to collect cells and cell fluid. Thereafter, living cells and dead cells were quantified (n=2) using a trypan blue solution (15250-061, Gibco), and statistical analysis was performed using Excel-T-test. Here, as a negative control, only a solvent (0.100 DMSO) was used; and as a positive control, N-(4-(2-amino-3-chloropyridin-4-yloxy)-3-fluorophenyl)-4-ethoxy-1-(4-fluorophenyl)-2-oxo-1,2-dihydropyridine-3-carboxamide, which is the compound of Example 1 in WO 2008/058229 A1, was used.

[2] = test system: cancer cell line KM12C, in which RON is activated; assay: Cell growth inhibitory ability in RON-activated cancer cell line (MTS); format: cell-based; details: Homo sapiens, 48 hours, absorbance 490 nm
Experimental: Experimental Example 2: Identification of Cell Growth Inhibitory Ability of Example Compounds in RON-Activated Cancer Cell Line
The cancer cell line KM12C (80015, KCLB, MEM+1K° FBS), in which RON is activated, was treated with each of the example compounds at a concentration of 10 μM, and then reaction was allowed to proceed for 48 hours. 24 hours after completion of the reaction, 20 μl of MTS solution (CellTiter 96 Aqueous One Solution Cell Proliferation Assay, product number: G3581, Promega) was added to each well, and then incubation was performed at a temperature of 37° C. in 50 CO2 incubator for 4 hours. Then, an IC50 value of the compound was derived by measuring its absorbance value at a wavelength of 490 nm using a Victor X5 plate reader. Here, as a positive control, N-(4-(2-amino-3-chloropyridin-4-yloxy)-3-fluorophenyl)-4-ethoxy-1-(4-fluorophenyl)-2-oxo-1,2-dihydropyridine-3-carboxamide, which is the compound of Example 1 in WO 2008/058229 A1, was used.

T1 sequence (Q04912 25-1400): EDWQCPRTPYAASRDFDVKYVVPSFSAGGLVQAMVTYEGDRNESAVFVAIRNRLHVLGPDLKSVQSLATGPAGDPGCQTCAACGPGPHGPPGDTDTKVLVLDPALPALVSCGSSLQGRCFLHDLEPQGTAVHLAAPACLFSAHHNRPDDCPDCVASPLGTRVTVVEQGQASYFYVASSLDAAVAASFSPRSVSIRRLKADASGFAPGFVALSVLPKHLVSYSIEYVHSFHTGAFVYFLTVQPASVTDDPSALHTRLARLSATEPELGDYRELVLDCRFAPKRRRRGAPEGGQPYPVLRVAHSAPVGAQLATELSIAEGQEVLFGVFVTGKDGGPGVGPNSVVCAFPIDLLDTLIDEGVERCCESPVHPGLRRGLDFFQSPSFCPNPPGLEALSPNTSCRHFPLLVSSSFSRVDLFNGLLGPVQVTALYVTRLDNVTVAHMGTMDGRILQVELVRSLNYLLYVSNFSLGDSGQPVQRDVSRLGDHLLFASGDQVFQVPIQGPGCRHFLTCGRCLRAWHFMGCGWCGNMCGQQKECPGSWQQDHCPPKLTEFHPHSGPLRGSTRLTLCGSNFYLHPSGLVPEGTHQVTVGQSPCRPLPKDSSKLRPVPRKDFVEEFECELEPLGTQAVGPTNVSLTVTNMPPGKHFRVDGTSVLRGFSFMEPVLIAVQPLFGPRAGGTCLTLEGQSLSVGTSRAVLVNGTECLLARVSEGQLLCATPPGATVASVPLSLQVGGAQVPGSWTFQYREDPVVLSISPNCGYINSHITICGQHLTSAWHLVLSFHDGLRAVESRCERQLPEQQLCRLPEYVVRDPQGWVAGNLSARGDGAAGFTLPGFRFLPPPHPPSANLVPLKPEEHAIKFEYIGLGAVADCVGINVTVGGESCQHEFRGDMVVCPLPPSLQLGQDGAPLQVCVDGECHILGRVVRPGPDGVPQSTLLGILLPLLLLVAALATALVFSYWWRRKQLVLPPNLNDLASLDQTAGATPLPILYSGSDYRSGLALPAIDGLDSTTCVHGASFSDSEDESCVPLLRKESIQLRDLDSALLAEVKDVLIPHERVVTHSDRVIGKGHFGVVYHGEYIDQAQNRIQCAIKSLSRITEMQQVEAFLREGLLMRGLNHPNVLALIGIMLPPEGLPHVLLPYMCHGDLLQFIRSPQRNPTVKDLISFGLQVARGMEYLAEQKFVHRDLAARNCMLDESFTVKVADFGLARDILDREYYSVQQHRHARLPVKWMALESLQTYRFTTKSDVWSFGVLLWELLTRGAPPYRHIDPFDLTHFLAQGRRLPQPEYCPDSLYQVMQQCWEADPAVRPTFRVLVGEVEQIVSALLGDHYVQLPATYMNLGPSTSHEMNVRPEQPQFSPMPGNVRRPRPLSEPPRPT

Row | SMILES | IC50 (RON tyrosine kinase) [nM] | IC50 [2] [nM] | cytotoxicity at 1 µM [1] [%] | cytotoxicity at 5 µM [1] [%]
1 | Cn1cc(-c2cc3nccc(Oc4ccc(NC(=O)c5c6c(cn(-c7ccc(F)cc7)c5=O)CCO6)cc4F)c3s2)cn1 [Example 10, N-(3-Fluoro-4-((2-(1-methyl-1H-pyrazol-4-yl)thieno[3,2-b]pyridin-7-yl)oxy)phenyl)-5-(4-fluorophenyl)-6-oxo-2,3,5,6-tetrahydrofuro[3,2-c]pyridine-7-carboxamide] | 0.92 |  | 22 | 21.9
2 | COc1ccc2nccc(Oc3ccc(NC(=O)c4c5c(cn(-c6ccc(F)cc6)c4=O)CCO5)cc3F)c2c1 [Example 44, N-(3-Fluoro-4-((6-methoxyquinolin-4-yl)oxy)phenyl)-5-(4-fluorophenyl)-6-oxo-2,3,5,6-tetrahydrofuro[3,2-c]pyridine-7-carboxamide] | 1.87 |  | 16 | 21.4
3 | COc1ccc2c(Oc3ccc(NC(=O)c4c5c(cn(-c6ccc(F)cc6)c4=O)CCO5)cc3F)ccnc2c1 [Example 45, N-(3-Fluoro-4-((7-methoxyquinolin-4-yl)oxy)phenyl)-5-(4-fluorophenyl)-6-oxo-2,3,5,6-tetrahydrofuro[3,2-c]pyridine-7-carboxamide] | 1.5 |  | 16.3 | 18.9
4 | COc1cc2nccc(Oc3ccc(NC(=O)c4c5c(cn(-c6ccc(F)cc6)c4=O)CCO5)cc3F)c2cc1C(=O)N(C)C [Example 49, N-(4-((6-(Dimethylcarbamoyl)-7-methoxyquinolin-4-yl)oxy)-3-fluorophenyl)-5-(4-fluorophenyl)-6-oxo-2,3,5,6-tetrahydrofuro[3,2-c]pyridine-7-carboxamide] | 2.98 |  | 9.98 | 11.2
5 | CC1CCN(CCCOc2ccc3c(Oc4ccc(NC(=O)c5c6c(cn(-c7ccc(F)cc7)c5=O)CCO6)cc4F)ccnc3c2)CC1 [Example 162] | 1.18 |  | 16.4 | 22.6
6 | O=C(Nc1ccc(Oc2ccnc3cc(OCCN4CCOCC4)c(C(F)(F)F)cc23)c(F)c1)c1c2c(cn(-c3ccc(F)cc3)c1=O)CCO2 [Example 169, N-(3-Fluoro-4-((7-(2-morpholinoethoxy)-6-(trifluoromethyl)quinolin-4-yl)oxy)phenyl)-5-(4-fluorophenyl)-6-oxo-2,3,5,6-tetrahydrofuro[3,2-c]pyridine-7-carboxamide] | > 100 |  |  | 
7 | O=C(Nc1ccc(Oc2ccnc3cc(OCCCN4CCOCC4)c(C(F)(F)F)cc23)c(F)c1)c1c2c(cn(-c3ccc(F)cc3)c1=O)CCO2 [Example 170, N-(3-Fluoro-4-((7-(3-morpholinopropoxy)-6-(trifluoromethyl)quinolin-4-yl)oxy)phenyl)-5-(4-fluorophenyl)-6-oxo-2,3,5,6-tetrahydrofuro[3,2-c]pyridine-7-carboxamide] | > 100 |  |  | 

Continued, in another order:

Row | IC50 (RON tyrosine kinase) [nM] | IC50 [2] [nM] | SMILES | cytotoxicity at 1 µM [1] [%] | cytotoxicity at 5 µM [1] [%]
8 |  | 2 | COC1CN(Cc2ccc(-c3cc4nccc(Oc5ccc(NC(=O)c6c7c(cn(-c8ccc(F)cc8)c6=O)CCO7)cc5F)c4s3)nc2)C1 [Example 14, N-(3-Fluoro-4-((2-(5-((3-methoxyazetidin-1-yl)methyl)pyridin-2-yl)thieno[3,2-b]pyridin-7-yl)oxy)phenyl)-5-(4-fluorophenyl)-6-oxo-2,3,5,6-tetrahydrofuro[3,2-c]pyridine-7-carboxamide] | 13.6 | 21.5
9 |  | 1 | COC1(C)CN(Cc2ccc(-c3cc4nccc(Oc5ccc(NC(=O)c6c7c(cn(-c8ccc(F)cc8)c6=O)CCO7)cc5F)c4s3)nc2)C1 [Example 16, N-(3-Fluoro-4-((2-(5-((3-methoxy-3-methylazetidin-1-yl)methyl)pyridin-2-yl)thieno[3,2-b]pyridin-7-yl)oxy)phenyl)-5-(4-fluorophenyl)-6-oxo-2,3,5,6-tetrahydrofuro[3,2-c]pyridine-7-carboxamide] | 20.4 | 24.2
10 |  | 1 | O=C(Nc1ccc(Oc2ccnc3cc(-c4ccc(CN5CC(F)C5)cn4)sc23)c(F)c1)c1c2c(cn(-c3ccc(F)cc3)c1=O)CCO2 [Example 17, N-(3-Fluoro-4-((2-(5-((3-fluoroazetidin-1-yl)methyl)pyridin-2-yl)thieno[3,2-b]pyridin-7-yl)oxy)phenyl)-5-(4-fluorophenyl)-6-oxo-2,3,5,6-tetrahydrofuro[3,2-c]pyridine-7-carboxamide] | 14 | 27.7
11 |  | 3 | O=C(Nc1ccc(Oc2ccnc3cc(-c4ccc(CN5CC(F)(F)C5)cn4)sc23)c(F)c1)c1c2c(cn(-c3ccc(F)cc3)c1=O)CCO2 [Example 18, N-(4-((2-(5-((3,3-Difluoroazetidin-1-yl)methyl)pyridin-2-yl)thieno[3,2-b]pyridine-7-yl)oxy)-3-fluorophenyl)-5-(4-fluorophenyl)-6-oxo-2,3,5,6-tetrahydrofuro[3,2-c]pyridine-7-carboxamide] | 10.9 | 11.3
12 |  | 1 | N#CC1CN(Cc2ccc(-c3cc4nccc(Oc5ccc(NC(=O)c6c7c(cn(-c8ccc(F)cc8)c6=O)CCO7)cc5F)c4s3)nc2)C1 [Example 19, N-(4-((2-(5-((3-Cyanoazetidin-1-yl)methyl)pyridin-2-yl)thieno[3,2-b]pyridin-7-yl)oxy)-3-fluorophenyl)-5-(4-fluorophenyl)-6-oxo-2,3,5,6-tetrahydrofuro[3,2-c]pyridine-7-carboxamide] | 15.7 | 21.9
13 |  | 1 | CC1(O)CCN(Cc2ccc(-c3cc4nccc(Oc5ccc(NC(=O)c6c7c(cn(-c8ccc(F)cc8)c6=O)CCO7)cc5F)c4s3)nc2)C1 (centres unmarked) [Example 24, N-(3-Fluoro-4-((2-(5-((3-hydroxy-3-methylpyrrolidin-1-yl)methyl)pyridin-2-yl)thieno[3,2-b]pyridin-7-yl)oxy)phenyl)-5-(4-fluorophenyl)-6-oxo-2,3,5,6-tetrahydrofuro[3,2-c]pyridine-7-carboxamide] | 18.6 | 16.9
14 |  | 1 | COC1CCN(Cc2ccc(-c3cc4nccc(Oc5ccc(NC(=O)c6c7c(cn(-c8ccc(F)cc8)c6=O)CCO7)cc5F)c4s3)nc2)C1 (centres unmarked) [Example 25, N-(3-Fluoro-4-((2-(5-((3-methoxypyrrolidin-1-yl)methyl)pyridin-2-yl)thieno[3,2-b]pyridin-7-yl)oxy)phenyl)-5-(4-fluorophenyl)-6-oxo-2,3,5,6-tetrahydrofuro[3,2-c]pyridine-7-carboxamide] | 17.5 | 21
